Experimental findings from US7691965B2, “Helical synthetic peptides that stimulate cellular cholesterol efflux” (The Regents of the University of California, priority 2002, dated 2010) are described below.

Series [1] concerns the target T1, ABCA1 (Mus musculus, UniProt P41233). Kind of series: ABCA1 stabilization: immunoblot of ABCA1 protein in J774 macrophage membranes after cAMP withdrawal. Also on record: J774 macrophages were used to assess relative ABCA1 protein levels in the presence and absence of synthetic peptides; endogenous in cells; host or cells: J774 macrophages treated with a cAMP analog (CPT-cAMP or 8-bromo-cAMP). As to conditions: 20 μg/ml peptide, 6 h without cAMP, J774 macrophages. The class given is cell-based. The method, then:
J774 macrophages were incubated (18 h) with 0.5 mM 8-bromo-cAMP in medium containing 0.1% bovine serum albumin to up-regulate ABCA1 protein expression. Washed cells were subsequently exposed for 6 h to bovine serum albumin medium with (+) or without (−) 8-bromo-cAMP and the indicated synthetic peptides (20 μg/ml). None refers to no peptides. The cellular membrane content of ABCA1 protein was measured by immunoblot analysis.
ABCA1 Stabilization—J774 macrophages were used to assess relative ABCA1 protein levels in the presence and absence of synthetic peptides. Cells were grown in 10% fetal bovine serum, extensively rinsed, and incubated (18 h) with Dulbecco's modified Eagle's medium containing 0.1% bovine serum albumin plus the cAMP analog 8-bromo-cAMP. Cells were next exposed to synthetic peptides or serum-free medium in the absence of the cAMP stimulus to evaluate whether ABCA1 protein was stabilized or degraded. Relative levels of ABCA1 protein were assessed by immunoblot analysis of cell membranes (Oram, J. F. et al., J. Biol. Chem., 278:52379-52385 (2003)). ABCA1 was visualized using an enhanced chemiluminescence detection assay.
To assess ABCA1 stabilization, J774 macrophages were treated with a cAMP analog to up-regulate ABCA1 protein expression and then incubated for 6 h without cAMP. In the absence of inducer, ABCA1 protein is rapidly degraded in these cells (FIG. 9). […] Thus, it appears that the helical combinations that stimulate cholesterol efflux also stabilize the ABCA1 transporter.
Background: In western blotting, separated proteins are transferred to a membrane and probed.

Series [2] addresses T1, ABCA1. Kind of series: Cellular cholesterol efflux from [3H]cholesterol-labeled J774 macrophages with and without cAMP analog. As to conditions: for ABCA1-dependent cholesterol efflux (result in words): lipid-free acceptor, J774 macrophages with vs without cAMP analog. Also on record: endogenous in cells; host or cells: J774 macrophages treated with a cAMP analog (CPT-cAMP or 8-bromo-cAMP). The class given is cell-based. The text has this:
Suitable cholesterol efflux assays are described in, e.g., Bielicki, J. K and Oda, M. N., Biochemistry, 41:2089-2096 (2002); Jia, Z. et al., Biochem. Biophys. Res. Common., 297:206-213 (2002). In some embodiments, a polypeptide known to mediate cholesterol efflux (e.g., helix 9/10 of Apo A-I) is used to screen for additional mediators of cholesterol efflux in a cell based assay. For example, cell lines in which cholesterol efflux can be enhanced using a cAMP analog that up-regulates ABCA1 protein expression (e.g., J774 macrophages) can conveniently be used to assess the ability of an Apo A-I, Apo A-II, Apo A-IV, Apo E, Apo C-I, Apo C-II, Apo C-III, or Serum Amyloid A peptide to mediate cholesterol efflux. The cells are incubated with labeled cholesterol (e.g., [^3H]cholesterol) under conditions appropriate for cholesterol uptake by the cells. cAMP or cAMP analogs (e.g., CPT-cAMP) is incubated with the cells for a suitable time before the initiation of cellular cholesterol efflux, i.e., prior to contacting the cells with helix 9/10 of Apo A-I or the test compound. Measurement of labeled cholesterol appearing in the medium is used to determine the cholesterol efflux mediating activity of the test compound.
Cellular Cholesterol Efflux Protocol—J774 macrophages were used to assess the cholesterol efflux properties of synthetic amphipathic α-helical peptides (Bielicki, J. K and Oda, M. N., Biochemistry, 41:2089-2096 (2002); Jia, Z. et al., Biochem. Biophys. Res. Common., 297:206-213 (2002)). This cell line was chosen because cholesterol efflux can be enhanced using a cAMP analog that up-regulates ABCA1 protein expression. The cells were seeded onto 24-well culture plates and labeled for 48 h with [^3H]cholesterol in RPMI 1640 supplemented with 1% fetal bovine serum. The cAMP analog CPT-cAMP was added (0.3 mM, final concentration) to the cells at least 12 h before the initiation of cellular cholesterol efflux. Synthetic peptides in lipid-free form were added to cells in serum-free RPMI. The lipid-free form of full-length recombinant apoA-I was used as a positive control to define apparent ABCA1-dependent cholesterol efflux in the presence and absence of cAMP stimulation. Efflux results were expressed as a percentage of the initial cellular [^3H] appearing in the medium as a function of time subtracting the background efflux obtained using serum-free medium alone.

Series [3] can be described thus: Relative lipid binding affinity by surface balance technique (monolayer exclusion pressure). The class given is physicochemical. To be noted: for Monolayer exclusion pressure: surface balance technique. The text has this:
(§1) Relative Lipid Binding Affinity, Hydrophobicity, and Amphiphilicity of Synthetic Peptides—In some experiments, the relative lipid binding affinity of unique peptides was quantified using a surface balance technique (Gillotte, K L. et al., J. Biol. Chem., 274:2021-2028 (1999)). For routine analyses, a turbid solution of dimyristoylphosphatidylcholine (DMPC) was used to assess the relative capacity of synthetic peptides to solubilize phospholipid as described (Palgunachari, M. N. et al., Arterioscler. Thromb. Vasc. Biol., 16:328-338 (1996); McLean, L. R. and Hagaman, K. A., Biochim. Biophys. Acta, 1167:289-295 (1993)). The DMPC was used at a final concentration of 0.08 mg/ml in 10 mM Tris-saline (pH 7.4). The final weight ratio of peptides relative to DMPC was 1:1. The absorbance (400 nm) of samples was monitored continuously over a period of 30 min at 25° C. Hydrophobicity of helical peptides was calculated using the consensus scale (Eisenberg D., Annu. Rev. Biochem., 53:593-623 (1984)). The hydrophobic moment (kcal/mol) of synthetic peptides, which is a measure of helix amphiphilicity, was calculated as described by Eisenberg et al. (Eisenberg, D. et al., Nature, 299:371-374 (1982)).

Series [4] can be described thus: DMPC clearance assay (solubilization of a turbid phospholipid solution). The class given is physicochemical.
Text: as §1, with “Peptides-In” for “Peptides—In”, “[…].,” for “Hagaman, K. A.,”

The target of series [5] is T1, ABCA1. In words: ABCA1 stabilization: immunoblot of ABCA1 protein in J774 macrophage membranes after cAMP withdrawal. The class given is cell-based. Also on record: J774 macrophages were used to assess relative ABCA1 protein levels in the presence and absence of synthetic peptides; endogenous in cells; host or cells: J774 macrophages treated with a cAMP analog (CPT-cAMP or 8-bromo-cAMP). As to conditions: concentration dependence studies, J774 macrophages.

Where a SMILES comes first, the peptide text is derived from it.

T1 sequence (P41233 whole entry): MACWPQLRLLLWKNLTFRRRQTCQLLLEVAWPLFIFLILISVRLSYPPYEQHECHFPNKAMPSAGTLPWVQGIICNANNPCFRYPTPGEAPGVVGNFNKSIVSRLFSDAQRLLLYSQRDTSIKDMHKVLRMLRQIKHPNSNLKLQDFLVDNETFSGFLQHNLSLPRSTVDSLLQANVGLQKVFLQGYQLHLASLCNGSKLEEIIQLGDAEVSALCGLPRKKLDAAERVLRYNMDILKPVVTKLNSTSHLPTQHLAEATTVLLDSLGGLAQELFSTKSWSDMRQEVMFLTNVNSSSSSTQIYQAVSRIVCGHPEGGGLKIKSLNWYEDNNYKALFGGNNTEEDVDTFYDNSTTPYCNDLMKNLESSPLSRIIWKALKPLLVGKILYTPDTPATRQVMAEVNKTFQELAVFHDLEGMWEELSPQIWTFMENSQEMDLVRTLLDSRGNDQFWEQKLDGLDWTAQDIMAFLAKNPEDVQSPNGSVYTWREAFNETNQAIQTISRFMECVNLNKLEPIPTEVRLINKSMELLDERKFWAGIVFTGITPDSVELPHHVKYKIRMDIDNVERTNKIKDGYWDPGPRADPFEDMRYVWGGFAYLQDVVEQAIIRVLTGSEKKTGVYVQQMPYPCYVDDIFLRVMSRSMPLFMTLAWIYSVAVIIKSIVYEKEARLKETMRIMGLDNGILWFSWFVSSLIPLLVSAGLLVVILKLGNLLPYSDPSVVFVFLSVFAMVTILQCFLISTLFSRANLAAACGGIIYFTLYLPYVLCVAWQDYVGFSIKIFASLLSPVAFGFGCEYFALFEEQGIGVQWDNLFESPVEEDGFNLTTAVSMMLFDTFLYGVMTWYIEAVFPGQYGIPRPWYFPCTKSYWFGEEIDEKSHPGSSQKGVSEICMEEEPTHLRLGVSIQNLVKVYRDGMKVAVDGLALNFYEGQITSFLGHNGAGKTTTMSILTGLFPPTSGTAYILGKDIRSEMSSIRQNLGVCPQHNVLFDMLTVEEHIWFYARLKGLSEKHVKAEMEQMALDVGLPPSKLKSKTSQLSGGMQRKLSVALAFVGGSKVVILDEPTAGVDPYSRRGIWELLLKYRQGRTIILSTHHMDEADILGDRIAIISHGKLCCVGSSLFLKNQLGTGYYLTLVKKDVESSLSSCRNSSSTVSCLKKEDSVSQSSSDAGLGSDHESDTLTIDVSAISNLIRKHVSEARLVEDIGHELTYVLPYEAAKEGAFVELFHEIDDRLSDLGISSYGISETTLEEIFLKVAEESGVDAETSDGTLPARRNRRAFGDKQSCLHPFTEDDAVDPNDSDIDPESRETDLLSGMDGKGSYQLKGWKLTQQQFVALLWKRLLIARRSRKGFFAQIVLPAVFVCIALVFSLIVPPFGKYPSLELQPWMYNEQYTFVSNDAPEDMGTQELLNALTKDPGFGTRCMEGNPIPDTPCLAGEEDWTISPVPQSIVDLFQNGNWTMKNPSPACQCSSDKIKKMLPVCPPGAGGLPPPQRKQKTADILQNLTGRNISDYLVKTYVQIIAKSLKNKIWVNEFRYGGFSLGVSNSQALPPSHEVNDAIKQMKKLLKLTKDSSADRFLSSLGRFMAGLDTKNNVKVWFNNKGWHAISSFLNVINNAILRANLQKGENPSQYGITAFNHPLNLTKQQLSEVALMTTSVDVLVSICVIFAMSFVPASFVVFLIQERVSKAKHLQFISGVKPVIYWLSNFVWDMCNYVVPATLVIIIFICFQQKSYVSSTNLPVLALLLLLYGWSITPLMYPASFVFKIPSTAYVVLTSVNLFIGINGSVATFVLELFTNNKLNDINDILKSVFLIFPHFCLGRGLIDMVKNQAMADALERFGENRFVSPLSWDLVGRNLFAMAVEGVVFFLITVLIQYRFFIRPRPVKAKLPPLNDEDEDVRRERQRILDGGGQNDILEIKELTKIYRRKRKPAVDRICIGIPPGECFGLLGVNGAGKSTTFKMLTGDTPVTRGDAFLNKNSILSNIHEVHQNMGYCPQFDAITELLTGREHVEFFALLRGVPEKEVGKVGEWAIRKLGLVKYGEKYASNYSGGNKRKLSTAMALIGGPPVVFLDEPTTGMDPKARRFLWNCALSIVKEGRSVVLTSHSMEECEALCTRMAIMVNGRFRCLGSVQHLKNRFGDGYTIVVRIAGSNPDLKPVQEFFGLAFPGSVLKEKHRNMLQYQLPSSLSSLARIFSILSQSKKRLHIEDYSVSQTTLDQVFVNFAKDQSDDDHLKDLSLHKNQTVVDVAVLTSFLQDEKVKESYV

For `CC(=O)N[C@@H](CC(C)C)C(=O)N[C@@H](CCCCN)C(=O)N[C@@H](CC(C)C)C(=O)N[C@@H](CC(C)C)C(=O)N[C@@H](CC(=O)O)C(=O)N[C@@H](CC(N)=O)C(=O)N[C@@H](Cc1c[nH]c2ccccc12)C(=O)N[C@@H](CC(=O)O)C(=O)N[C@@H](CO)C(=O)N[C@H](C(=O)N[C@H](C(=O)N[C@@H](CO)C(=O)N[C@H](C(=O)N[C@@H](Cc1ccccc1)C(=O)N[C@@H](CO)C(=O)N[C@@H](CCCCN)C(=O)N[C@@H](CC(C)C)C(=O)N[C@@H](CCCNC(=N)N)C(=O)N[C@@H](CCC(=O)O)C(=O)N[C@@H](CCC(N)=O)C(=O)N[C@@H](CC(C)C)C(=O)NCC(N)=O)[C@@H](C)O)[C@@H](C)O)C(C)C` [Helical peptide 1] (Ac-LKLLDNWDSVTSTFSKLREQLG-NH2), the “ABCA1 stabilization (result in words)” value at ABCA1 [1] is “failed to prevent ABCA1 degradation”. Besides, the “cholesterol efflux relative to that obtained with full-length apoA-I” value on ABCA1 [2] (75 μg/ml, cAMP-treated macrophages) is recorded as 15%. The “ABCA1-dependent cholesterol efflux (result in words)” value (shortened to “ABCA1-dependent cholesterol efflux”) on ABCA1 [2] is reported as “failed to stimulate ABCA1-dependent cholesterol efflux”. Moreover, in series [3], the “lipid binding affinity (surface balance technique), result in words” value is given as “identical” and the Monolayer exclusion pressure is reported as 30 dynes/cm.

Turning to `CC(=O)N1CCC[C@H]1C(=O)N[C@@H](C)C(=O)N[C@@H](CC(C)C)C(=O)N[C@@H](CCC(=O)O)C(=O)N[C@@H](CC(=O)O)C(=O)N[C@@H](CC(C)C)C(=O)N[C@@H](CCCNC(=N)N)C(=O)N[C@@H](CCC(N)=O)C(=O)NCC(=O)N[C@@H](CC(C)C)C(=O)N[C@@H](CC(C)C)C(=O)N[C@@H](CC(C)C)C(=O)N[C@@H](CCCCN)C(=O)N[C@@H](CC(C)C)C(=O)N[C@@H](CC(C)C)C(=O)N[C@@H](CC(=O)O)C(=O)N[C@@H](CC(N)=O)C(=O)N[C@@H](Cc1c[nH]c2ccccc12)C(=O)N[C@@H](CC(=O)O)C(=O)N[C@@H](CO)C(=O)N[C@H](C(=O)N[C@H](C(=O)N[C@@H](CO)C(=O)N[C@H](C(=O)N[C@@H](Cc1ccccc1)C(=O)N[C@@H](CO)C(=O)N[C@@H](CCCCN)C(=O)N[C@@H](CC(C)C)C(=O)N[C@@H](CCCNC(=N)N)C(=O)N[C@@H](CCC(=O)O)C(=O)N[C@@H](CCC(N)=O)C(=O)N[C@@H](CC(C)C)C(=O)NCC(N)=O)[C@@H](C)O)[C@@H](C)O)C(C)C` [Helical peptide 9/1] (Ac-PALEDLRQGLLLKLLDNWDSVTSTFSKLREQLG-NH2), the “ABCA1 stabilization (result in words)” value at ABCA1 [1] is “retained ABCA1 stabilization activity”. In addition, the “ABCA1-dependent cholesterol efflux” value at ABCA1 [2] is “stimulated cholesterol efflux in an ABCA1-dependent manner”. In addition, in series [4], the DMPC clearance result is “+”.

As to `CC(=O)N1CCC[C@H]1C(=O)N[C@H](C(=O)N[C@@H](CC(C)C)C(=O)N[C@@H](CCC(=O)O)C(=O)N[C@@H](CO)C(=O)N[C@@H](Cc1ccccc1)C(=O)N[C@@H](CCCCN)C(=O)N[C@H](C(=O)N[C@@H](CO)C(=O)N[C@@H](Cc1ccccc1)C(=O)N[C@@H](CC(C)C)C(=O)N[C@@H](CO)C(=O)N[C@@H](C)C(=O)N[C@@H](CC(C)C)C(=O)N[C@@H](CCC(=O)O)C(=O)N[C@@H](CCC(=O)O)C(=O)N[C@@H](Cc1ccc(O)cc1)C(=O)N[C@H](C(=O)N[C@@H](CCCCN)C(=O)N[C@@H](CCCCN)C(=O)N[C@@H](CC(C)C)C(=O)N[C@@H](CC(N)=O)C(N)=O)[C@@H](C)O)C(C)C)C(C)C` [Helical peptide 10] (Ac-PVLESFKVSFLSALEEYTKKLN-NH2), the figures for the “ABCA1 stabilization (result in words)” value on ABCA1 [1] and at ABCA1 [1] (listed as Helix 10) were “failed to prevent ABCA1 degradation” and “nor does it stabilize ABCA1”, respectively. For the same molecule, the “ABCA1-dependent cholesterol efflux” value at ABCA1 [2] (listed as Helix 10) is reported as “does not mediate ABCA1-dependent cholesterol efflux”; at ABCA1 [2] (listed as helix 10), “poor mediator of cellular cholesterol efflux”. The Monolayer exclusion pressure in series [3] is given as 28 dynes/cm.

Consider “full-length apoA-I: full-length recombinant His-tagged apolipoprotein A-I from a bacterial expression system, positive control [reference compound]”, for which the “lowest concentration that prevented ABCA1 degradation” value with ABCA1 [5] is about 10 µg/mL. The “concentration at which cholesterol efflux reached maximal levels” value with ABCA1 [2] (cAMP-treated J774 cells) is 10 µg/mL. In addition, the “ABCA1-dependent cholesterol efflux” value with ABCA1 [2] is on record as “increased dramatically upon the up-regulation of the ABCA1 transporter”. Besides, in series [3], the “lipid binding affinity (surface balance technique), result in words” value is listed as “identical”.
